Test systems include HCC-2998 colon; HCT-116 colon; MDA-MB-435; LOX IMVI melanoma; ACHN renal; OVCAR-3 ovarian; SW-620 colon; UACC-257 melanoma; OVCAR-5 ovarian; TK-10 renal.
Experiment in all cases: growth of human tumour cells (NCI), 48 h

Experimental findings from PubChem BioAssay (NCI) are described below.

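Step 1: Grow cells in 96-well plates. Step 2: Expose to compound for 48 hours at 5 concentrations. Step 3: Interpolate endpoints linearly; if unreached, use highest concentration. GI50 is the concentration that inhibits growth by half. TGI marks complete inhibition of growth.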 Some results are limits rather than exact numbers.

For `CCOC(=O)c1ccc2c(c1)[n+](=O)c(C(=O)c1ccc3ccccc3c1)c(C(F)(F)F)n2[O-]`, the GI50 with HCC-2998 colon is 1650 nM; with HCT-116 colon, 373 nM; in the assay with MDA-MB-435, 1530 nM; in the assay with LOX IMVI melanoma it was 175 nM; in the assay on ACHN renal, 1470 nM; in the assay on OVCAR-3 ovarian, 749 nM. Also, the GI50 was 1520 nM in the assay with SW-620 colon, 1.79 µM in the assay on UACC-257 melanoma, 1.3 µM in the assay with OVCAR-5 ovarian and 1890 nM in the assay on TK-10 renal. Also, the TGI in the assay on HCC-2998 colon was found to be 3.03 µM; in the assay with HCT-116 colon, 1.46 µM; with MDA-MB-435, 2.95 µM; in the assay on LOX IMVI melanoma it was 0.329 µM; with ACHN renal, 2.93 µM; with OVCAR-3 ovarian it was 2.03 µM. Further, the TGI with SW-620 colon stood at 2.92 µM; in the assay on UACC-257 melanoma, 3.24 µM; with OVCAR-5 ovarian, 2.57 µM; in the assay on TK-10 renal it was 3.3 µM.
On to `CC(C)(C)C(=O)OCOP(=O)(OCOC(=O)C(C)(C)C)C1CCCN(OC(=O)c2ccccc2)C1=O` (stereo not given), for which the GI50 with HCC-2998 colon is 990 nM; in the assay on HCT-116 colon it was 558 nM; in the assay with MDA-MB-435, 3000 nM; with LOX IMVI melanoma, 2530 nM; in the assay on ACHN renal, 666 nM; in the assay on OVCAR-3 ovarian, 1240 nM. The GI50 in the assay with SW-620 colon was 1420 nM; in the assay with UACC-257 melanoma, 3.43 µM; in the assay on OVCAR-5 ovarian, 4.1 µM; with TK-10 renal, 2160 nM. The TGI in the assay with HCC-2998 colon stood at 5.86 µM; with HCT-116 colon it was 6.46 µM; with MDA-MB-435, 17.6 µM; in the assay with LOX IMVI melanoma it was 20.9 µM; in the assay with ACHN renal, 11.7 µM; in the assay with OVCAR-3 ovarian, 7.28 µM. The TGI was 24.4 µM in the assay on SW-620 colon, 22.4 µM with UACC-257 melanoma, greater than 100 µM in the assay with OVCAR-5 ovarian and 23.2 µM in the assay with TK-10 renal.
On to `C=CCCC(O)c1ccc(C(O)CCCCCCCCCCCC)o1` (stereo not given), for which the GI50 in the assay on HCC-2998 colon is 21400 nM; with HCT-116 colon, 14800 nM; in the assay on MDA-MB-435 it was 17800 nM; in the assay on LOX IMVI melanoma, 16200 nM; with ACHN renal, 15800 nM; in the assay on OVCAR-3 ovarian, 18700 nM. In addition, the GI50 was 17900 nM with SW-620 colon, 19.2 µM in the assay with UACC-257 melanoma, 21.5 µM in the assay with OVCAR-5 ovarian and 16400 nM with TK-10 renal. In addition, the TGI with HCC-2998 colon came to 37.2 µM; in the assay with HCT-116 colon, 28.6 µM; with MDA-MB-435, 34.7 µM; with LOX IMVI melanoma, 29.7 µM; with ACHN renal it was 29.2 µM; in the assay on OVCAR-3 ovarian it was 35.7 µM. Also, the TGI is 37.9 µM in the assay on SW-620 colon, 40.1 µM with UACC-257 melanoma, 41.4 µM with OVCAR-5 ovarian and 30.2 µM in the assay on TK-10 renal.
`CCOC(=O)C1=C(N)Oc2c(sc3c(C)cccc23)C1c1ccc(Cl)cc1` (stereo not given): the GI50 in the assay on HCC-2998 colon is 2320 nM; in the assay on HCT-116 colon, 2830 nM; in the assay with MDA-MB-435, 447 nM; in the assay on LOX IMVI melanoma it was 3030 nM; in the assay on ACHN renal it was 3170 nM; in the assay on OVCAR-3 ovarian, 2690 nM. Further, the GI50 was 3640 nM in the assay on SW-620 colon, 13.1 µM with UACC-257 melanoma, 4.03 µM in the assay with OVCAR-5 ovarian and 12600 nM in the assay on TK-10 renal. The TGI in the assay with HCC-2998 colon amounted to 6.63 µM; in the assay on HCT-116 colon it was 12.1 µM; in the assay with MDA-MB-435, 2.59 µM; with LOX IMVI melanoma, 13.7 µM; in the assay on ACHN renal, 17.6 µM; with OVCAR-3 ovarian it was 9.61 µM. In addition, the TGI with SW-620 colon amounted to 16.8 µM; with UACC-257 melanoma it was 30.4 µM; in the assay on OVCAR-5 ovarian, 15.7 µM; with TK-10 renal, 29.1 µM.
`O=C(CCc1nnc(-c2c(Cl)cccc2Cl)o1)c1nc2ccccc2[nH]1`: the GI50 with HCC-2998 colon was 6520 nM; in the assay with HCT-116 colon, 3330 nM; with MDA-MB-435 it was 2000 nM; in the assay on LOX IMVI melanoma, 4030 nM; with ACHN renal, 11900 nM; with OVCAR-3 ovarian it was 5630 nM. For the same compound, the GI50 was 3460 nM in the assay with SW-620 colon, 13.7 µM in the assay with UACC-257 melanoma, 7.82 µM with OVCAR-5 ovarian and 16400 nM with TK-10 renal. In addition, the TGI is 32.3 µM in the assay on HCC-2998 colon; 13.5 µM with HCT-116 colon; 4.77 µM in the assay on MDA-MB-435; 39.8 µM in the assay on LOX IMVI melanoma; greater than 100 µM with ACHN renal; 24.8 µM in the assay on OVCAR-3 ovarian. The TGI was 16.3 µM with SW-620 colon, 44.4 µM with UACC-257 melanoma, greater than 100 µM with OVCAR-5 ovarian and greater than 100 µM with TK-10 renal.
For `Cc1cc(Cl)ccc1NC(=O)/C(Cl)=C(/Cl)C(=O)O`, the TGI in the assay on HCC-2998 colon turned out to be 39.3 µM; in the assay with HCT-116 colon, 37.9 µM; in the assay with MDA-MB-435, 45.9 µM; with LOX IMVI melanoma, 43 µM; with ACHN renal, 36.1 µM; in the assay on OVCAR-3 ovarian it was 36.8 µM. Also, the TGI was 48.9 µM with SW-620 colon, 36.1 µM with UACC-257 melanoma, 36.2 µM in the assay with OVCAR-5 ovarian and 33.2 µM with TK-10 renal.
Regarding `O=C(/C=C/c1ccccn1)c1ccccc1O`, the GI50 in the assay with HCC-2998 colon is 1700 nM; with HCT-116 colon, 1850 nM; in the assay on MDA-MB-435, 1690 nM; in the assay on LOX IMVI melanoma, 1850 nM; in the assay with ACHN renal it was 1920 nM; in the assay on OVCAR-3 ovarian it was 1710 nM. The GI50 in the assay on SW-620 colon is 1920 nM; in the assay on UACC-257 melanoma, 2.22 µM; in the assay on OVCAR-5 ovarian it was 2.43 µM; in the assay on TK-10 renal, 2280 nM. Also, the TGI turned out to be 3.07 µM in the assay on HCC-2998 colon; 3.75 µM with HCT-116 colon; 3.41 µM in the assay on MDA-MB-435; 4.43 µM with LOX IMVI melanoma; 3.51 µM in the assay on ACHN renal; 3.5 µM with OVCAR-3 ovarian. Also, the TGI with SW-620 colon came to 4.02 µM; in the assay with UACC-257 melanoma, 5.71 µM; in the assay with OVCAR-5 ovarian, 6.8 µM; in the assay on TK-10 renal, 4.95 µM.
As for `C=C1C(=O)O[C@H]2[C@H]1CC/C(C=Nc1ccc(C(F)(F)F)cc1N)=C\CC[C@@]1(C)O[C@@H]21`, the GI50 in the assay on HCC-2998 colon is 16000 nM; in the assay on HCT-116 colon it was 2380 nM; in the assay on MDA-MB-435 it was 4740 nM; in the assay with LOX IMVI melanoma, 4120 nM; in the assay with ACHN renal, 6900 nM; in the assay with OVCAR-3 ovarian it was 2750 nM. For the same compound, the GI50 was 3670 nM in the assay with SW-620 colon, 12.3 µM in the assay with UACC-257 melanoma, 13.2 µM in the assay on OVCAR-5 ovarian and 6140 nM in the assay with TK-10 renal. The TGI in the assay on HCC-2998 colon worked out at 34.9 µM; in the assay on HCT-116 colon, 11 µM; in the assay with MDA-MB-435 it was 17.2 µM; in the assay with LOX IMVI melanoma it was 17.4 µM; with ACHN renal, 22.1 µM; in the assay on OVCAR-3 ovarian, 11.3 µM. Further, the TGI in the assay on SW-620 colon is 13.2 µM; in the assay on UACC-257 melanoma, 25.8 µM; in the assay with OVCAR-5 ovarian, 31.7 µM; in the assay on TK-10 renal, 17.4 µM.
With `C=C1C(=O)O[C@H]2[C@H]1CC/C(COC(=O)/C=C\C(=O)NCc1ccc(Cn3c(=O)sn(-c4ccc(OC)cc4)c3=O)cc1)=C\CC[C@@]1(C)O[C@@H]21`, the GI50 with HCC-2998 colon was 881 nM; in the assay with HCT-116 colon it was 171 nM; in the assay on MDA-MB-435, 642 nM; in the assay with LOX IMVI melanoma, 360 nM; in the assay on ACHN renal, 460 nM; with OVCAR-3 ovarian, 245 nM. In addition, the GI50 with SW-620 colon is 272 nM; in the assay on UACC-257 melanoma, 0.85 µM; in the assay on OVCAR-5 ovarian, 0.825 µM; with TK-10 renal it was 917 nM. Further, the TGI with HCC-2998 colon came out at 1.67 µM; in the assay with HCT-116 colon, 0.755 µM; in the assay on MDA-MB-435, 1.32 µM; in the assay on LOX IMVI melanoma, 1.09 µM; with ACHN renal, 1.07 µM; with OVCAR-3 ovarian, 0.898 µM. Moreover, the TGI is 1 µM in the assay with SW-620 colon, 1.86 µM with UACC-257 melanoma, 1.71 µM in the assay with OVCAR-5 ovarian and 1.67 µM in the assay with TK-10 renal.
Take `O=C(O)c1cc(N/C=C2\C(=O)c3ccccc3OC2O)ccc1O` (stereo not given): the GI50 was 27.4 µg/mL in the assay on HCC-2998 colon; 19.8 µg/mL with HCT-116 colon; 23.3 µg/mL with MDA-MB-435; 24.7 µg/mL in the assay with LOX IMVI melanoma; 28.3 µg/mL in the assay on ACHN renal; 14.6 µg/mL in the assay on OVCAR-3 ovarian. The GI50 with SW-620 colon is 23.4 µg/mL; in the assay on UACC-257 melanoma it was 33.4 µg/mL; with OVCAR-5 ovarian, 29.3 µg/mL; in the assay on TK-10 renal, 39.2 µg/mL. In addition, the TGI is 50.2 µg/mL with HCC-2998 colon; 51 µg/mL in the assay with HCT-116 colon; 79.2 µg/mL in the assay with MDA-MB-435; 80.9 µg/mL in the assay with LOX IMVI melanoma; 82.7 µg/mL in the assay on ACHN renal; 47.2 µg/mL in the assay with OVCAR-3 ovarian. Moreover, the TGI in the assay with SW-620 colon was found to be 54.2 µg/mL; in the assay on UACC-257 melanoma it was 93.7 µg/mL; in the assay on OVCAR-5 ovarian, 74.9 µg/mL; in the assay with TK-10 renal, 118 µg/mL.
For `C[As](C)Sc1ccnc(S[As](C)C)n1`, the GI50 in the assay on HCC-2998 colon was 3020 nM; in the assay on HCT-116 colon it was 2130 nM; in the assay with MDA-MB-435, 1800 nM; in the assay on LOX IMVI melanoma it was 2760 nM; in the assay on ACHN renal, 1850 nM; in the assay with OVCAR-3 ovarian, 3910 nM. Further, the GI50 in the assay with SW-620 colon was 1400 nM; in the assay on UACC-257 melanoma, 5 µM; with OVCAR-5 ovarian it was 19.6 µM; in the assay on TK-10 renal, 2640 nM. The TGI is 10.5 µM in the assay with HCC-2998 colon; greater than 34.8 µM in the assay with HCT-116 colon; greater than 27.9 µM in the assay on MDA-MB-435; 96.2 µM in the assay on LOX IMVI melanoma; 15.1 µM with ACHN renal; 22 µM in the assay on OVCAR-3 ovarian. In addition, the TGI with SW-620 colon is 19.5 µM; with UACC-257 melanoma, 27.1 µM; with OVCAR-5 ovarian it was greater than 48.4 µM; in the assay on TK-10 renal it was 14.3 µM.
